From PubChem BioAssay AID1159559 (GlaxoSmithKline (GSK), 2015)
Active and inactive are the calls of the source.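 Rule for the calls: active = compounds whose IC50 against parasite growth in infected mouse cells is below 50000 nM; inactive = the rest.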

Each compound was assayed on T. cruzi Tulahuen in NIH-3T3, beta-gal fluorescence, 4 d (assay: T. cruzi intracellular growth inhibition, cell-based (AID 1159559)).

SMILES | IC50
CCS(=O)(=O)c1cccc(C(=O)Nc2nc(-c3ccccn3)cs2)c1 | 1600 nM
CCOC(=O)c1noc(N)c1-c1ccccc1 | > 50000 nM (inactive)
COc1ccc2c(Cl)c(C(=O)N3CCC3)sc2c1Cl | 400 nM
CC(Cn1ccnc1)NC(=O)C1CC1c1cccc(Cl)c1Cl (centres undefined) | 130 nM
N#Cc1ccccc1S(=O)(=O)N1CCN(C(=O)CNC(=O)c2ccc3c(c2)OCO3)CC1 | 16000 nM
COc1ccc(S(=O)(=O)NCc2ccc(-c3ccc(CN(C)CCO)cc3)cc2)cc1 | 40 nM
CCN(CC)c1nc(N(C)C)nc2c1CN(Cc1ccccc1)CC2 | 6300 nM
O=C(Nc1ccc(Br)cn1)c1ccc(Cn2cnc([N+](=O)[O-])n2)cc1 | 160 nM
Cc1cc(-c2cccc3ccccc23)nc2nc(N)nc(N)c12 | 40000 nM
O=C1CN(Cc2ccco2)C2CS(=O)(=O)CC2N1c1ccc(Cl)cc1 (centres undefined) | > 50000 nM (inactive)
CCC(CC)C(=O)Nc1cccc(C(=O)Nc2nnc(C3CCCCC3)s2)c1 | 10000 nM
O=C(Nc1cccc(Cl)c1)N1CCCCC1c1cccnc1 (centres undefined) | 160 nM
CCC(CC)C(=O)Nc1ccc(-c2nnc(-c3ccc(OC)cc3)o2)cc1 | 5000 nM
COc1cccc(NS(=O)(=O)c2ccc3[nH]cc(C(=O)NCCC(C)C)c(=O)c3c2)c1 | > 50000 nM (inactive)
O=C1CN(C(=O)c2cccc(Nc3ncc(-c4ccc5c(c4)OCO5)cn3)c2)CCN1 | 1600 nM
C=CCOCC1Cn2nc([N+](=O)[O-])nc2O1 (centres undefined) | 500 nM
Cc1ccc(S(=O)(=O)Nc2ccc(CN3CCN(C(=O)c4cccc(C)c4)CC3)cc2)cc1 | 500 nM
Cc1cc(C#N)c([N+](=O)[O-])cc1Br | 200 nM
CCc1c(C)nc(-n2nc(C)cc2NC(=O)COc2ccccc2F)[nH]c1=O | 630 nM
O=C(Nc1cccc(S(=O)(=O)Nc2ccc(Br)cc2)c1)c1ccc([N+](=O)[O-])s1 | 100 nM
Clc1ccc(Sc2cnccc2N2CCOCC2)cc1 | 130 nM
NCC(Cc1ccccc1)NC(=O)c1cnc(-c2c[nH]c3ncccc23)s1 (centres undefined) | 2000 nM

SMILES | IC50
Cc1ccc2ccc(C(Nc3ccccn3)c3cccnc3)c(O)c2n1 (centres undefined) | 500 nM
O=C(Nc1nc2ccccc2[nH]1)c1ccc2nc[nH]c2c1 | 25000 nM
Cc1ccc(S(C)(=O)=O)cc1Nc1nccc(-c2sc(N)nc2-c2ccccc2)n1 | 130 nM
Cc1cc(Br)cc(C(=O)c2c(C(C)C)c(=O)[nH]c(=O)n2Cc2ccnc(N)c2)c1 | 400 nM
CC(c1ccccn1)N(C)Cc1nc2ccccc2n1C(C)C (centres undefined) | 1600 nM
O=C(NCCNc1noc(-c2ccc([N+](=O)[O-])cc2)n1)c1ccc(Cl)cc1 | 2000 nM
CCN(CC)c1ncc(C(=O)c2ccc([N+](=O)[O-])o2)s1 | 4000 nM
Cc1ccc2c(c1)SC(C(=O)Nc1n[nH]c(-c3ccccn3)n1)C2 (centres undefined) | 5000 nM
N#Cc1cc(-c2ccnc(Nc3cccc(CN4CCOCC4)c3)n2)ccc1NCCN | 7900 nM
CC(C)N(C(=O)CN1C(=O)C(N)C(=O)N(c2ccccc2)c2ccccc21)c1ccccc1 (centres undefined) | 320 nM
COCc1cc(Nc2ccccc2)nc(-c2ccccn2)n1 | 5000 nM
CN(Cc1nc2c(C(=O)N3CCN(Cc4ccccc4)CC3)cccc2[nH]1)C1CCCc2cccnc21 (centres undefined) | 790 nM
CC1=NN(C(=O)CCn2cnc([N+](=O)[O-])n2)C(O)(C(F)(F)F)C1 (centres undefined) | 2000 nM
O=C(NCCc1ccccc1Cl)c1cccn1-c1cccnc1 | 400 nM
Cc1[nH]nc(C(F)(F)F)c1NC(=O)CCn1cc(Cl)c([N+](=O)[O-])n1 | 7900 nM
Cc1cc(NC(=O)C2CC2)ccc1OC1CCN(Cc2ccco2)CC1 | 16000 nM
O=C(NNC(=O)c1ccccn1)c1ccc(-c2ccccc2)cc1 | 1600 nM
COc1ccc(C2CC(c3ccccc3Cl)=NN2C(=O)CNC(=O)C2CCC2)cc1 (centres undefined) | 2500 nM
Cc1ccc(CNC2CCN(C[C@@H]3Cn4c(=O)ccc5ccc(=O)n3c54)CC2)cc1F | 1300 nM
CC(C)(C)C(Cn1ccnc1)NC(=O)c1ccc2nc(C3CC3)oc2c1 (centres undefined) | 100 nM
N#Cc1ccc(C(=O)Nc2cccc(-c3cccc(CN4CCC(O)CC4)c3)c2)cc1 | 5000 nM
O=C(CN(Cc1ccccn1)Cc1ccccn1)NC1Cc2ccccc2C1 | 5000 nM

SMILES | IC50
CN1CCN(c2nc(-c3ccc(Cl)cc3)c3c(N)n(C)nc3n2)CC1 | 2000 nM
CC(C)CC(=O)NC(c1cccs1)c1ccc2cccnc2c1O (centres undefined) | 1600 nM
O=C(NCC1CCCCN1C(=O)c1cccc2ccccc12)c1ccccc1 (centres undefined) | 6300 nM
O=C(Cn1cnc([N+](=O)[O-])n1)Nc1ccc(Cl)cc1C(=O)c1ccccc1 | 250 nM
COc1cccc(S(=O)(=O)Nc2ccc3c(c2)CC(N2CCC(NC(=O)C4CC4)CC2)C3)c1 (centres undefined) | 40000 nM
Cn1cc(CN2CCN(c3ccc4c(c3)CCN(C(=O)[C@H]3C[C@@H]3c3ccccc3)CC4)CC2)cn1 | 1600 nM
CCOc1ccccc1C(=O)Nc1nnc(-c2ccc3c(c2)OCO3)s1 | 630 nM
CC(C)COC(=O)Nc1ccc(N2CCC(CNS(=O)(=O)c3ccccc3)CC2)c(F)c1 | 10000 nM
C[C@@H](Oc1cc(-n2cnc3ccc(C(O)CO)cc32)sc1C(N)=O)c1ccccc1C(F)(F)F (some centres undefined) | 5000 nM
O=C1CN(C2CCCc3c(OCc4ccncc4)cccc32)C(=O)N1C1CCCCC1 (centres undefined) | 250 nM
c1ccc(Nc2nc(-c3ccccn3)cc(N3CCOCC3)n2)cc1 | 2000 nM
CCN(Cc1cccs1)C(=O)CSc1nnc(-c2ccc3c(c2)OCO3)o1 | 4000 nM
COc1ccccc1C(=O)Nc1nnc(-c2ccc3c(c2)OCO3)s1 | 2500 nM
COc1cnc2ccc(=O)n(CCN3CCC(NC(=O)c4ccc(Cl)cc4)CC3)c2c1 | 130 nM
Cc1nc(-c2ccc3c(c2)OCO3)sc1C(=O)NCc1ccc2c(c1)OCO2 | 3200 nM
O=C(Nc1ncc([N+](=O)[O-])s1)C1CC1 | 400 nM
CN(C(=O)Nc1ccc2c(c1)CCN(C1CCC1)CC2)c1ccc(C#N)cc1 | 2000 nM
COc1ccc(-c2ccc3nnc(-c4ccc(O)c(OC)c4)n3c2)cn1 | 1300 nM
Cc1ccc(NC(C)C(=O)Nc2ccc(C#N)cc2)cc1S(=O)(=O)N1CCCCC1 (centres undefined) | 10000 nM
CCOc1ccc2nc(NC(=O)c3ccc([N+](=O)[O-])s3)sc2c1 | 1600 nM
Cc1cc(N(C)C)nc(Nc2ccccc2C)n1 | 1600 nM
CNS(=O)(=O)c1ccccc1Nc1nc(Nc2cc(C)nn2C)ncc1Cl | 400 nM

SMILES | IC50
O=C(CC1(O)C(=O)N(Cc2ccccc2)c2ccc(Br)cc21)c1cccnc1 (centres undefined) | 5000 nM
O=C(Cn1cnc2c(-c3ccccc3)csc2c1=O)N1CCCCC1 | 3200 nM
O=C(NCCCn1cnc2ccccc21)c1ccc(NC(=O)c2ccco2)cc1 | 4000 nM
CN(Cc1nc2ccc(C(=O)NCC3CCCCC3)cc2[nH]1)C1CCCc2cccnc21 (centres undefined) | 500 nM
COc1ccc(-c2cnc(NC(=O)c3cc(-c4ccccn4)n[nH]3)n2C)cc1 | 3200 nM
CC(C)(C)C(=O)Nc1cc(C2CC2)nn1-c1nc2c(c(=O)[nH]1)CCCC2 | 500 nM
Cn1ccnc1-c1nc(NCc2ccccc2Cl)cc(C2CC2)n1 | 630 nM
CCc1cccc(-n2nc(OCC(=O)NC3CCCC3)c3cccnc32)c1 | > 50000 nM (inactive)
O=C(Nc1nc2cc(Cl)ccc2o1)c1cccc(Cl)c1 | 790 nM
C[C@@H](Oc1cc(-n2cnc3cc(N)ccc32)sc1C(N)=O)c1ccccc1Cl | 1300 nM
CCCc1cc(C(=O)Nc2ncc(-c3cccc(Br)c3)n2C)n[nH]1 | 2500 nM
CC(C)(C)C(O)(CCc1ccc(Cl)cc1)Cn1cncn1 (centres undefined) | 130 nM
Cc1nc(C(=O)Nc2ccc3c(c2)OCO3)nn1-c1ccc(F)cc1 | 3200 nM
O=C(c1cccc(Nc2ncc(-c3ccc4c(c3)OCO4)cn2)c1)N1CCSC1 | 2500 nM
Oc1c(-c2n[nH]c(CCc3ccccc3)n2)ncc2cccnc12 | 200 nM
CC(c1ccc2c(c1)CCCC2)N(C)c1ncc2c(N)nc(N)nc2n1 (centres undefined) | 32 nM
COc1ccc2ncc(=O)n(CCN3CCC(NCc4ccc(-c5cccs5)cc4)CC3)c2n1 | 2000 nM
COc1ccc(C2CC(c3ccc(NS(C)(=O)=O)cc3)=NN2C(=O)c2cccs2)cc1OC (centres undefined) | 25000 nM
Cc1nc2c(-c3nc(-c4ccc(N)cc4)n[nH]3)cccn2c1C | 6300 nM
O=C(COc1nn(-c2ccccc2)c2ncccc12)NCc1ccccc1 | 13000 nM
COCCn1c(-c2ccccc2)cnc1NCc1ccccc1OC | 13000 nM
CC1(C)CCC(=Cc2ccc(Cl)cc2)CC1(O)Cn1ccnc1 (centres undefined) | 6.3 nM

SMILES | IC50
N#Cc1ccc(Br)cc1[N+](=O)[O-] | 250 nM
COc1ccc2nccc(NC(=O)C3(OC)CCN(CC(O)c4ccc5c(c4)OCCO5)CC3)c2n1 (centres undefined) | 250 nM
NC(=O)c1ccccc1Nc1nc(NC2CCCCC2)nc2[nH]ccc12 | 1000 nM
O=c1ccn(-c2ccc([N+](=O)[O-])cc2Cl)c2ccc(F)cc12 | 1600 nM
CCNc1cc(-c2ccccn2)nc(Nc2ccccc2)n1 | 790 nM
O=C(NCc1ccc(Cl)cc1)C1CN(C(=O)c2ccc(F)cc2)CCS1 (centres undefined) | 25000 nM
CN(C)c1ncc(-c2cncn2CCOc2ccc(Cl)cc2)cn1 | 200 nM
O=C(CN(c1cccc(C(F)(F)F)c1)S(=O)(=O)c1ccc(Cl)cc1)NCc1ccc(F)c(F)c1 | 790 nM
O=C(C1CCCCC1)N1CCN(c2nnc(-c3ccccc3)c3ccccc23)CC1 | 1000 nM
C[C@@H](Oc1cc(-n2cnc3ccc(O[C@H]4CCNC4)cc32)sc1C(N)=O)c1ccccc1Cl | 3200 nM
C[C@@H](Oc1cc(-n2cnc3ccc(CC(O)CO)cc32)sc1C(N)=O)c1ccccc1Cl (some centres undefined) | 3200 nM
CCN(CC)S(=O)(=O)c1ccc(C(=O)Nc2cc(C)nn2-c2nc(C)c(C)c(=O)[nH]2)cc1 | 630 nM
O=C(NCCc1ccccn1)C(c1cn[nH]c1)N1CCN(c2ccc(Cl)c(Cl)c2)CC1 (centres undefined) | 100 nM
COc1cccc(CCNC(=O)C(c2cn[nH]c2)N2CCN(c3ccc(Cl)cc3)CC2)c1 (centres undefined) | 20 nM
COc1ccc(Nc2nc(-c3ccccn3)cs2)c(OC)c1 | 4000 nM
O=C(c1cccc(Cl)c1Cl)N1CCn2c1nc(-c1ccncc1)cc2=O | 160 nM
Fc1ccc(OC2CC(NCc3cccc4cn[nH]c34)C2)cc1C(F)(F)F (centres undefined) | 790 nM
CCc1cccc(CC)c1-n1c(SCC(=O)N2CC(=O)Nc3ccccc32)nnc1-c1cccnc1 | 25000 nM
CN(Cc1nc2ccccc2s1)C(=O)C=Cc1cc2ccccc2o1 | 630 nM
CCC(=O)Nc1ccc(C(=O)Nc2ccccc2-c2ccccc2)cc1 | 500 nM
O=C1CCCCCC1(Cc1cnc[nH]1)c1ccc(Cl)cc1Cl (centres undefined) | 250 nM
